pIC50: −log10 of the molar value.

As a reminder, the pIC50 is the negative decadic logarithm of the IC50, by convention in mol/L. A higher pIC50 goes with a small IC50.

human MGL from HeLa cells, sequence (Q99685 whole entry): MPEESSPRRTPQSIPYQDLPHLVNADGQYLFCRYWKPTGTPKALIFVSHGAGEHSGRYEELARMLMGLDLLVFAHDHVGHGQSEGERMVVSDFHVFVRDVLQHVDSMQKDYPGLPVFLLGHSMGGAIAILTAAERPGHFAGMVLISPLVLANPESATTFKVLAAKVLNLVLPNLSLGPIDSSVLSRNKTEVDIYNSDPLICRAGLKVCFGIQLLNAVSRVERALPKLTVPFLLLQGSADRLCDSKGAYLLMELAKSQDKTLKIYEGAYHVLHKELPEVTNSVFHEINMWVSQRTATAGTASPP

This test concerns the target human MGL from HeLa cells (Homo sapiens (Human), UniProt Q99685). Kind of test: MGL in vitro activity assay ([glycerol-1,3-3H]-oleoyl glycerol hydrolysis, activated carbon filtration). It counts as biochemical. Particulars: 300 nM [Glycerol-1,3-3H]-oleoyl glycerol, one hour. A digest of the protocol:
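Endogenous human MGL in HeLa cells/homogenates incubated 1 h with test compounds and 300 nM [glycerol-1,3-3H]-oleoyl glycerol. Released 3H-glycerol passing an activated carbon filter counted as activity; screening at 10 μM compound, top IC50 concentration set empirically.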
In turn, `COc1cc(F)c(F)c(C2CCC3(CC2)CN(C(=O)[C@H]2C[C@@](C)(O)C2)C3)c1` [Example 368, (7-(2,3-Difluoro-5-methoxyphenyl)-2-azaspiro[3.5]nonan-2-yl)((1s,3s)-3-hydroxy-3-methylcyclobutyl)methanone] showed a pIC50 of 7.23.
The result for `COc1cc(F)cc(C2CCC3(CC2)CN(C(=O)[C@H]2C[C@@](C)(O)C2)C3)c1F` [Example 369, (7-(2,5-Difluoro-3-methoxyphenyl)-2-azaspiro[3.5]nonan-2-yl)((1s,3s)-3-hydroxy-3-methylcyclobutyl)methanone] reads 7.46; that for `COc1cc(C2CCC3(CC2)CN(C(=O)[C@H]2C[C@@](C)(O)C2)C3)cc(F)c1C` [Example 370, (7-(3-Fluoro-5-methoxy-4-methylphenyl)-2-azaspiro[3.5]nonan-2-yl)((1s,3s)-3-hydroxy-3-methylcyclobutyl)methanone], 7.96; that for `C[C@]1(O)C[C@@H](C(=O)N2CC3(CCC(c4cccc(C5(C(F)(F)F)CC5)n4)CC3)C2)C1` [Example 371, ((1s,3s)-3-Hydroxy-3-methylcyclobutyl)(7-(6-(1-(trifluoromethyl)cyclopropyl)pyridin-2-yl)-2-azaspiro[3.5]nonan-2-yl)methanone], 8.19.
Regarding `CC1(c2cccc(C3CCC4(CC3)CN(C(=O)[C@H]3C[C@@](C)(O)C3)C4)n2)CC1` [Example 372, ((1s,3s)-3-Hydroxy-3-methylcyclobutyl)(7-(6-(1-methylcyclopropyl)pyridin-2-yl)-2-azaspiro[3.5]nonan-2-yl)methanone], the pIC50 is 8.29.
The result for `Cc1ccc(C2CCC3(CC2)CN(C(=O)[C@H]2C[C@@](C)(O)C2)C3)nc1C(C)C` [Example 373, ((1s,3s)-3-Hydroxy-3-methylcyclobutyl)(7-(6-isopropyl-5-methylpyridin-2-yl)-2-azaspiro[3.5]nonan-2-yl)methanone] reads 8.62; that for `Cc1cc(OC(C)C)nc(C2CCC3(CC2)CN(C(=O)[C@H]2C[C@@](C)(O)C2)C3)c1` [Example 374, ((1s,3s)-3-Hydroxy-3-methylcyclobutyl)(7-(6-isopropoxy-4-methylpyridin-2-yl)-2-azaspiro[3.5]nonan-2-yl)methanone], 8.03; that for `COc1cc(C)nc(C2CCC3(CC2)CN(C(=O)[C@H]2C[C@@](C)(O)C2)C3)c1` [Example 375, ((1s,3s)-3-Hydroxy-3-methylcyclobutyl)(7-(4-methoxy-6-methylpyridin-2-yl)-2-azaspiro[3.5]nonan-2-yl)methanone], 6.64.
The same measure for `Cc1c(C2CCC3(CC2)CN(C(=O)[C@H]2C[C@@](C)(O)C2)C3)ccnc1OC(C)C` [Example 376, ((1s,3s)-3-Hydroxy-3-methylcyclobutyl)(7-(2-isopropoxy-3-methylpyridin-4-yl)-2-azaspiro[3.5]nonan-2-yl)methanone]: 7.77; for `CC(C)(C)c1cncc(C2CCC3(CC2)CN(C(=O)[C@H]2C[C@@](C)(O)C2)C3)n1` [Example 377, (7-(6-(tert-Butyl)pyrazin-2-yl)-2-azaspiro[3.5]nonan-2-yl)((1s,3s)-3-hydroxy-3-methylcyclobutyl)methanone]: 7.09; for `CC(C)(C)c1ccnc(C2CCC3(CC2)CN(C(=O)[C@H]2C[C@@](C)(O)C2)C3)n1` [Example 378, (7-(4-(tert-Butyl)pyrimidin-2-yl)-2-azaspiro[3.5]nonan-2-yl)((1s,3s)-3-hydroxy-3-methylcyclobutyl)methanone]: 7.43.
The result for `CC(C)(C)n1ccc(C2CCC3(CC2)CN(C(=O)[C@H]2C[C@@](C)(O)C2)C3)n1` [Example 379, (7-(1-(tert-Butyl)-1H-pyrazol-3-yl)-2-azaspiro[3.5]nonan-2-yl)((1s,3s)-3-hydroxy-3-methylcyclobutyl)methanone] reads 7.25; that for `C[C@]1(O)C[C@@H](C(=O)N2CC3(CCC(c4ccn(-c5ccccc5)n4)CC3)C2)C1` [Example 380, ((1s,3s)-3-Hydroxy-3-methylcyclobutyl)(7-(1-phenyl-1H-pyrazol-3-yl)-2-azaspiro[3.5]nonan-2-yl)methanone], 7.64.
Molecule `CC(C)(C)n1cnc(C2CCC3(CC2)CN(C(=O)[C@H]2C[C@@](C)(O)C2)C3)c1` [Example 381, (7-(1-(tert-Butyl)-1H-imidazol-4-yl)-2-azaspiro[3.5]nonan-2-yl)((1s,3s)-3-hydroxy-3-methylcyclobutyl)methanone] showed a pIC50 of 5.86.
The result for `CC(C)(C)c1cc(C2CCC3(CC2)CN(C(=O)[C@H]2C[C@@](C)(O)C2)C3)on1` [Example 382, (7-(3-(tert-Butyl)isoxazol-5-yl)-2-azaspiro[3.5]nonan-2-yl)((1s,3s)-3-hydroxy-3-methylcyclobutyl)methanone] reads 6.75.
The result for `Cn1cc(C2CCC3(CC2)CN(C(=O)[C@H]2C[C@@](C)(O)C2)C3)c2cccnc21` [Example 383, ((1s,3s)-3-Hydroxy-3-methylcyclobutyl)(7-(1-methyl-1H-pyrrolo[2,3-b]pyridin-3-yl)-2-azaspiro[3.5]nonan-2-yl)methanone] reads 6.74; that for `Cn1ccc2ccc(C3CCC4(CC3)CN(C(=O)[C@H]3C[C@@](C)(O)C3)C4)nc21` [Example 384, ((1s,3s)-3-Hydroxy-3-methylcyclobutyl)(7-(1-methyl-1H-pyrrolo[2,3-b]pyridin-6-yl)-2-azaspiro[3.5]nonan-2-yl)methanone], 7.01; that for `CC(C)n1ccc2ccc(C3CCC4(CC3)CN(C(=O)[C@H]3C[C@@](C)(O)C3)C4)nc21` [Example 385, ((1s,3s)-3-Hydroxy-3-methylcyclobutyl)(7-(1-isopropyl-1H-pyrrolo[2,3-b]pyridin-6-yl)-2-azaspiro[3.5]nonan-2-yl)methanone], 7.52.
The result for `Cn1cc(C(F)(F)F)c2ccc(C3CCC4(CC3)CN(C(=O)[C@H]3C[C@@](C)(O)C3)C4)nc21` [Example 386, ((1s,3s)-3-Hydroxy-3-methylcyclobutyl)(7-(1-methyl-3-(trifluoromethyl)-1H-pyrrolo[2,3-b]pyridin-6-yl)-2-azaspiro[3.5]nonan-2-yl)methanone] reads 7.72; that for `C[C@]1(O)C[C@@H](C(=O)N2CC3(CCC(c4ccc5ccn(CC(F)(F)F)c5n4)CC3)C2)C1` [Example 387, ((1s,3s)-3-Hydroxy-3-methylcyclobutyl)(7-(1-(2,2,2-trifluoroethyl)-1H-pyrrolo[2,3-b]pyridin-6-yl)-2-azaspiro[3.5]nonan-2-yl)methanone], 7.17; that for `C[C@]1(O)C[C@@H](C(=O)N2CC3(CCC(c4cc5ccccn5n4)CC3)C2)C1` [Example 388, ((1s,3s)-3-Hydroxy-3-methylcyclobutyl)(7-(pyrazolo[1,5-c]pyridin-2-yl)-2-azaspiro[3.5]nonan-2-yl)methanone], 6.70.
In turn, `C[C@]1(O)C[C@@H](C(=O)N2CC3(CCC(c4cccc5ccnn45)CC3)C2)C1` [Example 389, ((1s,3s)-3-Hydroxy-3-methylcyclobutyl)(7-(pyrazolo[1,5-a]pyridin-7-yl)-2-azaspiro[3.5]nonan-2-yl)methanone] gave a pIC50 of 7.00.
The same measure for `C[C@]1(O)C[C@@H](C(=O)N2CC3(CCC(c4cccc5nccn45)CC3)C2)C1` [Example 390]: 6.14.
Regarding `C[C@]1(O)C[C@@H](C(=O)N2CC3(CCC(c4cn5ccccc5n4)CC3)C2)C1` [Example 391], the pIC50 is 5.90.
The result for `C[C@]1(O)C[C@@H](C(=O)N2CC3(CCC(c4cnc5ccccn45)CC3)C2)C1` [Example 392, ((1s,3s)-3-Hydroxy-3-methylcyclobutyl)(7-(imidazo[1,2-c]pyridin-3-yl)-2-azaspiro[3.5]nonan-2-yl)methanone] reads 6.10; that for `C[C@]1(O)C[C@@H](C(=O)N2CC3(CCC(c4cnn5cccc5c4)CC3)C2)C1` [Example 393, ((1s,3s)-3-Hydroxy-3-methylcyclobutyl)(7-(pyrrolo[1,2-b]pyridazin-3-yl)-2-azaspiro[3.5]nonan-2-yl)methanone], 7.57.
The same measure for `C[C@]1(O)C[C@@H](C(=O)N2CC3(CCC(c4cnn5ccccc45)CC3)C2)C1` [Example 394, ((1s,3s)-3-Hydroxy-3-methylcyclobutyl)(7-(pyrazolo[1,5-c]pyridin-3-yl)-2-azaspiro[3.5]nonan-2-yl)methanone]: 6.65; for `C[C@]1(O)C[C@@H](C(=O)N2CC3(CCC(c4cc5n(n4)CCCC5)CC3)C2)C1` [Example 395, ((1s,3s)-3-Hydroxy-3-methylcyclobutyl)(7-(4,5,6,7-tetrahydropyrazolo[1,5-a]pyridin-2-yl)-2-azaspiro[3.5]nonan-2-yl)methanone]: 6.45; for `C[C@]1(O)C[C@@H](C(=O)N2CC3(CCC(c4cn5c(n4)CCCC5)CC3)C2)C1` [Example 396, ((1s,3s)-3-Hydroxy-3-methylcyclobutyl)(7-(5,6,7,8-tetrahydroimidazo[1,2-a]pyridin-2-yl)-2-azaspiro[3.5]nonan-2-yl)methanone]: 5.14.
The result for `Cc1ccc(CC2CCC3(CC2)CN(C(=O)[C@H]2C[C@@](C)(O)C2)C3)cc1` [Example 397, ((1s,3s)-3-Hydroxy-3-methylcyclobutyl)(7-(4-methylbenzyl)-2-azaspiro[3.5]nonan-2-yl)methanone] reads 7.80; that for `Cc1cccc(CC2CCC3(CC2)CN(C(=O)[C@H]2C[C@@](C)(O)C2)C3)c1F` [Example 398, (7-(2-Fluoro-3-methylbenzyl)-2-azaspiro[3.5]nonan-2-yl)((1s,3s)-3-hydroxy-3-methylcyclobutyl)methanone], 7.74; that for `Cc1cc(CC2CCC3(CC2)CN(C(=O)[C@H]2C[C@@](C)(O)C2)C3)ccc1F` [Example 399, (7-(4-Fluoro-3-methylbenzyl)-2-azaspiro[3.5]nonan-2-yl)((1s,3s)-3-hydroxy-3-methylcyclobutyl)methanone], 7.72.

These data come from patent publication US11802111B2, “Cyclobutyl amide monoacylglycerol lipase modulators” (Janssen Pharmaceutica NV, priority 2020, dated 2023).
